Laboratory results reported in publication PMC5393024, “Discovery and characterization of natural tropolones as inhibitors of the antibacterial target CapF from Staphylococcus aureus” (Scientific Reports, 2015).
Where two headings read alike, the source gives them in different places.

What was measured:
[1] = test system: CapF; assay: NADPH consumption assay (absorbance at 340 nm); type: biochemical, Staphylococcus aureus; details: 0.02 μM CapF, 1.0 μM CapE, 125 μM UDP-D-GlcNAc, 250 μM NADPH, 37 °C
Experimental: A second assay monitoring the consumption of NADPH corroborates the inhibitory effect of 3-isopropenyl-tropolone (Fig. 2c). This assay is sensitive to the NADPH consumed by the SDR domain during the second reaction catalyzed by CapF (reduction step). […] Nevertheless, additional experiments were required to corroborate that idea (see below).
The enzymatic performance of CapF was evaluated by examining the consumption of NADPH spectrophotometrically, or by monitoring the disappearance of substrate and the formation of product by HPLC[9][12]. First, the time-dependent consumption of NADPH (monitored from a decrease of adsorption at 340 nm) was carried out in 384-well plates at a final volume of 50 μL. The solution contained 1.0 μM CapE, 0.02 μM CapF, 125 μM UDP-D-GlcNAc (substrate), 250 μM NADPH and fragment compounds at various concentrations in HBS supplemented with 0.005% (v/v) Tween-20 and 5% (v/v) DMSO. Each reaction mixture was incubated at 37 °C and the absorption at 340 nm was measured with a plate reader (PHERAstar, BMG Labtech, Durham, NC).
Figure S7. (a) Structure of compounds employed. (b-d) Time course of NADPH consumption by CapF in the presence of (b) tropolone, (c) 4-isopropyl-tropolone, and (d) 2-Cl-tropone. Increasing the concentration of compounds decreases the rate of consumption of NADPH. (e-g) Inhibition after two hours for (e) tropolone, (f) 4-isopropyl-tropolone, and (g) 2-Cl-tropone. Concentration of CapE and CapF was 1.0 µM and 0.02 µM, respectively. Concentration of NADPH and UDP-D-GlcNAc was 250 µM and 125 µM, respectively. The change of absorbance was calculated with respect to a control assay in the absence of CapF.
(1 picture or pasted object on this page, not shown here)

[2] = target: holo-CapF (reconstituted with Zn^2+) (Staphylococcus aureus, UniProt A0A0H3JP37); assay: ITC binding to CapF reconstituted with Zn2+ (holo-CapF)
Excerpt: Because tropolone and its analogs have been described as metal chelators in proteins, we anticipated that binding of the inhibitor to CapF is governed by the Zn^2+ ion present in the cupin domain[12]. To confirm this hypothesis, we performed two different types of experiments. First, we determined the binding properties of 3-isopropenyl-tropolone to apo-CapF (i.e. Zn^2+-depleted CapF) and to holo-CapF (reconstituted with Zn^2+) by isothermal titration calorimetry (ITC). The stoichiometry is consistent with a 1:1 binding model.
Figure 3 Binding of 3-isopropenyl-tropolone to CapF requires Zn^2+. CapF (150 μM) reconstituted with Zn^2+ was titrated with 1.65 mM inhibitor in the absence (a) or the presence (b) of 1 mM EDTA. The upper panels correspond to the titration data, and the lower panels to the integrated binding isotherms. (c) Binding competition assay. CapF (1.0 μM) reconstituted with Zn^2+ in the presence of the Zn^2+-sensitive dye FluoZin-3 (1.0 μM) was titrated with 3-isopropenyl-tropolone (λEX = 490 nm; λEM = 520 nm).
Binding constants and thermodynamic parameters of the interaction between CapF and fragment compounds were determined with an iTC200 instrument (GE Healthcare) at 25 °C. Samples were equilibrated in a buffer composed of 10 mM HEPES (pH 7.4) and 150 mM NaCl supplemented with 5% (v/v) DMSO. CapF at 150–270 μM was titrated with compounds at 0.5–1.65 mM. Analysis of the data was performed with ORIGIN7 using a one-site binding model.
Figure S8. Binding isotherms of compounds with CapF as determined by ITC. (a) tropone, (b) 2-Cl-tropone, (c) tropolone, (d) 4-isopropyl-tropolone. Concentration of CapF in the cell was 150 µM, except in panel (a) where it was 270 µM. Concentration of compounds was 1.65 mM, except in panel (a) where it was 0.5 mM. Titrations were performed in an iTC200 instrument at 25 °C.
Data analysis was carried out with ORIGIN.

[3] = target: CapF; details: cited from earlier work

Sequence of holo-CapF (reconstituted with Zn^2+) (A0A0H3JP37 entry or part of it): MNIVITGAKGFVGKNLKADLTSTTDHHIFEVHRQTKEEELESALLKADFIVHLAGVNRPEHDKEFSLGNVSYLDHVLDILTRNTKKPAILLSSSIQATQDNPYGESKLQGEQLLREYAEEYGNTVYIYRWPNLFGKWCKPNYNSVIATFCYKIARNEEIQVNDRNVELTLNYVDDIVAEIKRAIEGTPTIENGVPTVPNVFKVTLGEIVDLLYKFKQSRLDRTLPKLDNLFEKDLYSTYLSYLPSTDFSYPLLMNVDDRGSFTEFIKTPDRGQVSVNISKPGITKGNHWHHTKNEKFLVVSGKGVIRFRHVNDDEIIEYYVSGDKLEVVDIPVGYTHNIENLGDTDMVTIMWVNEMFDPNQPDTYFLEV

## O=c1cccccc1Cl [2-Cl-tropone]
[1]
  inhibition of NADPH consumption: did not significantly inhibit
[2]; ITC, 25 °C
  binding to CapF by ITC: not detected

## CC(C)c1cccc(=O)c(O)c1 [4-isopropyl-tropolone]
[1]
  inhibition of NADPH consumption: inhibited the consumption of NADPH in a concentration-dependent basis
[2]; ITC, 25 °C, 10 mM HEPES pH 7.4, 150 mM NaCl, 5% DMSO, one-site model, read-out: KD
  Kd: 1800 µM
[2]; ITC, 25 °C, read-out: KD
  Kd: 1800 µM
[2]; ITC, stoichiometry was fixed to n = 1 in the fit
  n (binding stoichiometry): 1.0

## O=c1cccccc1O [tropolone]
[1]
  inhibition of NADPH consumption: inhibited the consumption of NADPH in a concentration-dependent basis
[2]
  Kd: 38 ± 7 µM
[2]; ITC, 25 °C
  n (binding stoichiometry): 1.1 ± 0.2
  ΔH°: -2.9 ± 0.8 kcal/mol
  −TΔS°: -3.2 ± 1.0 kcal/mol
[2]; from ITC binding free energy
  ligand efficiency (LE = −ΔG/HAC): 0.67 kcal/mol

## O=c1cccccc1 [tropone]
[1]
  inhibition of NADPH consumption: did not significantly inhibit
[2]; ITC, 25 °C
  binding to CapF by ITC: not detected

## NADPH
[3]
  Kd: 1.6 µM
